Data set [1] addresses T1, human mGluR5a receptor (Homo sapiens, UniProt P41594).
T1 construct: host or cells: HEK293A (monoclones H10H and H12H)
In words: Functional Assay 2: Ca2+ mobilization, HEK cells with human mGluR5a receptor (H10H cell line). It is filed as cell-based. The note with it: H10H cell line; for EC50: glutamate EC20; for Emax: HEK293, maximum average response at a single concentration, relative to glutamate ECMax. The procedure: Human mGluR5a cDNA in pCMV6-XL6 mammalian expression plasmid was purchased from OriGene Technologies, Inc. (catalogue number SC326357) and subcloned into pcDNA3.1(−). […] Monoclones were named for the species (“H” for human) plus the location on the plate (e.g. “10H”).
The following day, the growth medium was removed and the cells were washed with assay buffer containing 1× Hank's balanced salt solution (Invitrogen, Carlsbad, Calif.), 20 mM HEPES, 2.5 mM probenecid, pH 7.4 and left with 20 μL of this reagent. Following this step, the cells were loaded with calcium indicator dye, fluo-4 AM, to a final concentration of 2 μM and incubated for 40-45 min at 37° C. The dye solution was removed and replaced with assay buffer. Cell plates were held for 10-15 min at room temperature and were then loaded into the Functional Drug Screening System 6000 (FDSS 6000, Hamamatsu, Japan).
After establishment of a fluorescence baseline for about 3 seconds, the compounds of the present invention were added to the cells, and the response in cells was measured. 2.3 minutes later an EC20 concentration of the mGluR5 receptor agonist glutamate was added to the cells, and the response of the cells was measured for about 1.7 minutes. All test compounds were dissolved and diluted to a concentration of 10 mM in 100% DMSO and then serially diluted into assay buffer for a 2× stock solution in 0.6% DMSO; stock compounds were then added to the assay for a final DMSO concentration of 0.3% after the first addition to the assay well. Calcium fluorescence measures were recorded as fold over basal fluorescence; raw data was then normalized to the maximal response to glutamate.
The concentration-response curves of compounds of the present invention, obtained in the presence of EC20 of mGluR5 receptor agonist glutamate to determine positive allosteric modulation, were generated using Microsoft Excel with IDBS XLfit add-ins. The raw data file containing all time points was used as the data source in the analysis template. This was saved by the FDSS as a tab-delimitted text file. Data were normalized using a static ratio function (F/F0) for each measurement of the total 350 values per well divided by each well's initial value. […] This is sufficient time to capture the peak amplitude of the cellular calcium response. […] Each of the three values collected at each concentration of test compound were weighted evenly. […] These two methods are in good agreement for curves with a clear plateau at the high concentration range.
A general note: A change in cytosolic calcium serves as a functional read-out for many receptors and channels.

T1 sequence (P41594 21-1180 isoform P41594-2 limits assumed): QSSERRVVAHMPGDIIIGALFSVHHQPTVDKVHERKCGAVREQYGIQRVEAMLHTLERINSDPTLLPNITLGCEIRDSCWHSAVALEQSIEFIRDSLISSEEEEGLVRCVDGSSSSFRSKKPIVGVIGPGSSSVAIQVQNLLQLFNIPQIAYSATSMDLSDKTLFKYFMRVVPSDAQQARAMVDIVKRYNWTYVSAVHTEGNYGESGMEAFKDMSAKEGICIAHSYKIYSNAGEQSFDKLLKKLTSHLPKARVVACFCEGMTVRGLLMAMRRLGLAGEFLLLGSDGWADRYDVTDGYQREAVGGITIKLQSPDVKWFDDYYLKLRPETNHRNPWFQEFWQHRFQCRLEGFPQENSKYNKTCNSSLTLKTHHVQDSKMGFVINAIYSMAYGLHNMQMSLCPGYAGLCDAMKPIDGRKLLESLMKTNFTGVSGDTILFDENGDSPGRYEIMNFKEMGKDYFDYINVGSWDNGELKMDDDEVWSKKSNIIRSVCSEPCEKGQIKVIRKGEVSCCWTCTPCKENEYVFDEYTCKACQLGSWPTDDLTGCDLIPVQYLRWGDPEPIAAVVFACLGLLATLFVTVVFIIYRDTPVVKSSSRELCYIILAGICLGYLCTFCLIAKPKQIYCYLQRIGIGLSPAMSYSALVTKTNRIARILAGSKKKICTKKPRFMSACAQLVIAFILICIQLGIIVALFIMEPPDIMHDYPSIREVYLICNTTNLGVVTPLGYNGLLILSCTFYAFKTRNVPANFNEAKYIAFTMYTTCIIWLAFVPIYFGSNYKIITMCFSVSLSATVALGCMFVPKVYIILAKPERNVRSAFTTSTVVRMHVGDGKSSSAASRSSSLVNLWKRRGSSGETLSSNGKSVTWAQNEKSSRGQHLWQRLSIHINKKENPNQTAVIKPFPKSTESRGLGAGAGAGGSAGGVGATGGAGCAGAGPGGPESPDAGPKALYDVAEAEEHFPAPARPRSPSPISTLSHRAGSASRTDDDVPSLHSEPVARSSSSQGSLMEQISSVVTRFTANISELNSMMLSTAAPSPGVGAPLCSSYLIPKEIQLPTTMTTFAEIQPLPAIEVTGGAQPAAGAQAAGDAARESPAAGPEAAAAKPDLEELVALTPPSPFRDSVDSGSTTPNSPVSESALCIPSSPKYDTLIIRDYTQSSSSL

`O=C1c2sc(COc3ccc(F)cc3)nc2CCN1c1ccc(F)cc1` [Compound 6, 2-[(4-fluorophenoxy)methyl]-5-(4-fluorophenyl)-6,7-dihydro-thiazolo[5,4-c]pyridin-4(5H)-one] gave a melting point of over 280 °C. In data set [1], this molecule gave an EC50 of 457 nM and a maximum response (Emax) of 75%.
The molecule `O=C1c2sc(COc3ccc(F)cc3)nc2CCN1c1ccc(F)cc1F` [Compound 32, 5-(2,4-difluorophenyl)-2-[(4-fluorophenoxy)methyl]-6,7-dihydro-thiazolo[5,4-c]pyridin-4(5H)-one] yielded a melting point of over 280 °C. In data set [1], this molecule gave an EC50 of 224 nM and an Emax of 81%.
In the same order, the values of `O=C1c2sc(COc3cccc(F)c3)nc2CCN1CC1CC1` [Compound 41, 5-(cyclopropylmethyl)-2-[(3-fluorophenoxy)methyl]-6,7-dihydro-thiazolo[5,4-c]pyridin-4(5H)-one] are 275.4 to 277.8 °C, 224 nM and 66%.
In the same order, the values of `O=C1c2sc(COc3ccccc3F)nc2CCN1c1ccc(F)cn1` [Compound 55, 2-[(2-fluorophenoxy)methyl]-5-(5-fluoro-2-pyridinyl)-6,7-dihydro-thiazolo[5,4-c]pyridin-4(5H)-one] are 151.8 to 153 °C, 550 nM and 63%.
On the same counts, the results for `O=C1c2sc(COc3ccccc3F)nc2CCN1C1CC1` [Compound 61, 5-cyclopropyl-2-[(2-fluorophenoxy)methyl]-6,7-dihydro-thiazolo[5,4-c]pyridin-4(5H)-one] are 235.8 to 240.2 °C, over 30200 nM and 27%.
As for `O=C1c2sc(COc3cccc(F)c3)nc2CCN1c1ccc(F)cc1` [Compound 25, 2-[(3-fluorophenoxy)methyl]-5-(4-fluorophenyl)-6,7-dihydro-thiazolo[5,4-c]pyridin-4(5H)-one], the melting point is 152.8 °C. Besides, in data set [1], the response was half-maximal at 174 nM (EC50) and the Emax is 63%.
On the same counts, the results for `COc1ccccc1N1CCc2nc(COc3cccc(F)c3)sc2C1=O` [Compound 37, 2-[(3-fluorophenoxy)methyl]-6,7-dihydro-5-(2-methoxyphenyl)-thiazolo[5,4-c]pyridin-4(5H)-one] are 61.2 to 64.2 °C, 871 nM and 83%.
On the same counts, the results for `Cc1cccc(COc2nc3c(s2)C(=O)N(c2ccc(F)cc2F)CC3)c1` [Compound 21, 5-(2,4-difluorophenyl)-6,7-dihydro-2-[(3-methylphenyl)methoxy]-thiazolo[5,4-c]pyridin-4(5H)-one] are 95.2 to 97.2 °C, 331 nM and 54%.
On the same counts, the results for `CN1CCCc2nc(COc3ccccc3)sc2C1=O` [Compound 38, 5,6,7,8-tetrahydro-5-methyl-2-(phenoxymethyl)-4H-thiazolo[5,4-c]azepin-4-one] are 105.9 °C, 1070 nM and 70%.
For `O=C1c2sc(COc3ccccc3)nc2CCN1C1CC1` [Compound 44, 5-cyclopropyl-6,7-dihydro-2-(phenoxymethyl)-thiazolo[5,4-c]pyridin-4(5H)-one], the melting point is 252.1 to 255.3 °C. In data set [1], this molecule gave a concentration for a half-maximal effect (EC50) of 4370 nM and an Emax of 36%.
For `O=C1c2sc(COc3cccc(F)c3)nc2CCN1C1CC1` [Compound 40, 5-cyclopropyl-2-[(3-fluorophenoxy)methyl]-6,7-dihydro-thiazolo[5,4-c]pyridin-4(5H)-one], the melting point lay in the range of 243.9 to 245.7 °C. In data set [1], this molecule had an EC50 of 1550 nM and an Emax of 39%.
In the same order, the values of `O=C1c2sc(COc3ccccc3)nc2CCCN1c1ccc(F)cc1` [Compound 11, 5-(4-fluorophenyl)-5,6,7,8-tetrahydro-2-(phenoxymethyl)-4H-thiazolo[5,4-c]azepin-4-one] are 120.4 °C, 214 nM and 81%.
In the same order, the values of `O=C1c2sc(COc3ccccc3F)nc2CCN1c1ccc(F)cc1F` [Compound 59, 5-(2,4-difluorophenyl)-2-[(2-fluorophenoxy)methyl]-6,7-dihydro-thiazolo[5,4-c]pyridin-4(5H)-one] are 100.1 to 105.2 °C, 195 nM and 76%.
In turn, `O=C1c2sc(COc3ccc(F)cc3)nc2CCN1c1ccc(F)cn1` [Compound 53, 2-[(4-fluorophenoxy)methyl]-5-(5-fluoro-2-pyridinyl)-6,7-dihydro-thiazolo[5,4-c]pyridin-4(5H)-one] gave a melting point of 185.8 to 186.8 °C. In data set [1], this molecule gave a half-maximal effective concentration (EC50) of 295 nM and a maximal response (Emax) of 56%.
In the same order, the values of `Cc1cccc(N2CCc3nc(COc4ccccc4)sc3C2=O)n1` [Compound 46, 6,7-dihydro-5-(6-methyl-2-pyridinyl)-2-(phenoxymethyl)-thiazolo[5,4-c]pyridin-4(5H)-one] are 155.5 °C, 550 nM and 84%.
On the same counts, the results for `O=C1c2sc(COc3ccccc3)nc2CCN1c1cncc(F)c1` [Compound 57, 5-(5-fluoro-3-pyridinyl)-6,7-dihydro-2-(phenoxymethyl)-thiazolo[5,4-c]pyridin-4(5H)-one] are 167.6 °C, 1700 nM and 62%.
In the same order, the values of `O=C1c2sc(COc3ccccc3F)nc2CCN1c1ccc(F)cc1` [Compound 31, 2-[(2-fluorophenoxy)methyl]-5-(4-fluorophenyl)-6,7-dihydro-thiazolo[5,4-c]pyridin-4(5H)-one] are over 280 °C, 282 nM and 71%.
Regarding `O=C1NCCc2nc(COc3ccccc3)sc21` [Compound 2, 6,7-dihydro-2-(phenoxymethyl)-thiazolo[5,4-c]pyridin-4(5H)-one], the melting point was found to be 170.5 °C. Also, in data set [1], the EC50 was over 10000 nM and the Emax is 84%.
In the same order, the values of `O=C1c2sc(COc3ccc(F)cc3)nc2CCN1CC1CC1` [Compound 43, 5-(cyclopropylmethyl)-2-[(4-fluorophenoxy)methyl]-6,7-dihydro-thiazolo[5,4-c]pyridin-4(5H)-one] are 254 to 259.1 °C, 759 nM and 59%.
In the case of `O=C1c2sc(COc3ccccc3)nc2CCN1c1ccc(F)cc1F` [Compound 29, 5-(2,4-difluorophenyl)-6,7-dihydro-2-(phenoxymethyl)-thiazolo[5,4-c]pyridin-4(5H)-one], the melting point lay within 268.9 to 284.1 °C. In data set [1], this molecule had an EC50 of 97.7 nM and an Emax of 81%.
Molecule `O=C1c2sc(OCc3ccccc3)nc2CCN1Cc1ccc(F)cc1F` [Compound 13, 5-[(2,4-difluorophenyl)methyl]-6,7-dihydro-2-(phenylmethoxy)-thiazolo[5,4-c]pyridin-4(5H)-one] came in with a melting point of 108 to 111.2 °C. Further, in data set [1], the EC50 is 1860 nM and the Emax was determined as 48%.
On the same counts, the results for `O=C1c2sc(COc3ccc(F)cc3)nc2CCN1C1CC1` [Compound 62, 5-cyclopropyl-2-[(4-fluorophenoxy)methyl]-6,7-dihydro-thiazolo[5,4-c]pyridin-4(5H)-one] are 126.3 to 130.8 °C, over 10000 nM and 51%.
Turning to `O=C1c2sc(COc3cccc(F)c3)nc2CCN1c1ccc(F)cn1` [Compound 54, 2-[(3-fluorophenoxy)methyl]-5-(5-fluoro-2-pyridinyl)-6,7-dihydro-thiazolo[5,4-c]pyridin-4(5H)-one], the melting point fell in the range of 125.8 to 126.4 °C. In data set [1], the response was half-maximal at 288 nM (EC50) and the Emax was 79%.
`O=C1c2sc(COc3ccccc3)nc2CCN1CC1CC1` [Compound 39, 5-(cyclopropylmethyl)-6,7-dihydro-2-(phenoxymethyl)-thiazolo[5,4-c]pyridin-4(5H)-one] had a melting point of 292.6 to 302.9 °C. For the same molecule, the EC50 in data set [1] was 209 nM.
`N#Cc1cccc(COc2nc3c(s2)C(=O)N(c2ccc(F)cc2F)CC3)c1` [Compound 20, 3-[[[5-(2,4-difluorophenyl)-4,5,6,7-tetrahydro-4-oxothiazolo[5,4-c]pyridin-2-yl]oxy]methyl]-benzonitrile] returned a melting point of 112.9 °C. Also, in data set [1], the EC50 is 158 nM and the Emax was 25%.

One may read the melting point as the temperature of the solid-liquid transition. Broadly, the EC50 is the concentration needed to bring the measured effect to its halfway point. Low readings indicate higher potency in that assay, high ones lower potency in that assay. What is called Emax is the greatest response seen or fitted, relative to the assay's reference.
